Measurements taken from patent publication US8263065B2, “Tumor suppression using human placental perfusate and human placenta-derived intermediate natural killer cells” (Anthrogenesis Corporation, priority 2007, dated 2012).

Experiments:
cultured PINK cells = experiment: qRT-PCR gene expression in lenalidomide- or pomalidomide-treated cultured PINK cells; assay type: cell-based, human; settings: treated vs untreated cultured PINK cells
Excerpt: RNA isolation and purification.
Quantitative real-time (qRT-PCR) analysis.

[1] = cited from earlier work

For Nc1cccc2c1C(=O)N(C1CCC(=O)NC1=O)C2=O (racemic) [pomalidomide, 4-(Amino)-2-(2,6-dioxo(3-piperidyl))-isoindoline-1,3-dione], the “Fold change of gene expression, LTA” value (cultured PINK cells) was 2.68 fold.

For Nc1cccc2c1CN(C1CCC(=O)NC1=O)C2=O (stereo not shown) [Form D, 3-(4-amino-1-oxo-1,3 dihydro-isoindol-2-yl)-piperidene-2,6-dione], the “stability at higher relative humidities” value [1] is listed as “will typically convert to Form B”.

For Nc1cccc2c1CN(C1CCC(=O)NC1=O)C2=O (stereo not shown) [Form B, 3-(4-amino-1-oxo-1,3 dihydro-isoindol-2-yl)-piperidene-2,6-dione], the “stability in aqueous solvent systems” value ([1]; aqueous solvent systems) is listed as “converts to Form E in aqueous solvent systems”.

For Nc1cccc2c1CN(C1CCC(=O)NC1=O)C2=O (stereo not shown) [Form C, 3-(4-amino-1-oxo-1,3 dihydro-isoindol-2-yl)-piperidene-2,6-dione], the “stability at higher relative humidities” value [1] is listed as “can convert to Form B”.
